Measured values taken from ChEMBL document CHEMBL1201862, “PubChem BioAssay data set” (2004).
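All cell lines were grown in 96-well plates and treated with compound for 48 hours. GI50 is the concentration that inhibits growth by half.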 Activity calls are given as the source filed them. Cut-off read from the data, not from the text of the source: active = GI50 up to about 1.1 µM and inactive = higher. Where a SMILES comes first, the peptide text is derived from it. The star is where a group is joined. Boc = CC(C)(C)OC(=O)*

Tests used:
Assay in all cases: NCI anticancer screen, dose series, 48 h
SF-539 = test system: SF-539
COLO 205 = test system: COLO 205
SF-295 = test system: SF-295
SK-OV-3 = test system: SK-OV-3
LOX IMVI = test system: LOX IMVI
RPMI-8226 = test system: RPMI-8226
OVCAR-3 = test system: OVCAR-3
ACHN = test system: ACHN
CAKI-1 = test system: CAKI-1
KM12 = test system: KM12
M14 = test system: M14
TK-10 = test system: TK-10
OVCAR-8 = test system: OVCAR-8
SF-268 = test system: SF-268
K562 = test system: K562
MOLT-4 = test system: MOLT-4

SMILES	GI50 (SF-539)	GI50 (COLO 205)	GI50 (SF-295)	GI50 (SK-OV-3)	GI50 (LOX IMVI)	GI50 (RPMI-8226)	GI50 (OVCAR-3)	GI50 (ACHN)	GI50 (CAKI-1)	GI50 (KM12)	GI50 (M14)	GI50 (TK-10)	GI50 (OVCAR-8)	GI50 (SF-268)	GI50 (K562)	GI50 (MOLT-4)
O=S(=O)(O)CS(=O)(=O)OCCCl	> 100 µM (inactive)	> 100 µM (inactive)	> 100 µM (inactive)	> 100 µM (inactive)	> 100 µM (inactive)	> 100 µM (inactive)	> 100 µM (inactive)	> 100 µM (inactive)	> 100 µM (inactive)	> 100 µM (inactive)	> 100 µM (inactive)	> 100 µM (inactive)	> 100 µM (inactive)	> 100 µM (inactive)	> 100 µM (inactive)	> 100 µM (inactive)
COc1ccc(NC(=O)CC(=O)n2nc(-c3ccccc3)c(/N=N/c3ccccc3C(=O)O)c2-c2ccccc2)cc1	55.1 µM (inactive)	> 100 µM (inactive)	42.4 µM (inactive)	15.9 µM (inactive)	> 100 µM (inactive)	> 100 µM (inactive)	> 100 µM (inactive)	> 100 µM (inactive)	> 100 µM (inactive)	> 100 µM (inactive)		> 100 µM (inactive)	25.2 µM (inactive)	> 100 µM (inactive)	52.7 µM (inactive)	40.6 µM (inactive)
CCOC(=O)C/C(=N\c1cc(C)on1)N(CC)CC.[O-][Cl+3]([O-])([O-])O	> 100 µM (inactive)	> 100 µM (inactive)		> 100 µM (inactive)		> 100 µM (inactive)	> 100 µM (inactive)	> 100 µM (inactive)	> 100 µM (inactive)	> 100 µM (inactive)	> 100 µM (inactive)	> 100 µM (inactive)	> 100 µM (inactive)	> 100 µM (inactive)	> 100 µM (inactive)	> 100 µM (inactive)
CCn1c(O)c(C(=O)Nc2cccs2)c(=O)n(CC)c1=S	18.5 µM (inactive)	16.8 µM (inactive)	11.7 µM (inactive)	26.7 µM (inactive)	17 µM (inactive)	20.4 µM (inactive)	16.6 µM (inactive)	21.5 µM (inactive)	22.6 µM (inactive)	16.8 µM (inactive)	19.8 µM (inactive)	29 µM (inactive)	14.2 µM (inactive)	19.3 µM (inactive)	21.9 µM (inactive)	20 µM (inactive)
COC(=O)Cc1cc(=O)[nH]c2c1C(=O)CCC2	> 100 µM (inactive)		> 100 µM (inactive)	> 100 µM (inactive)		> 100 µM (inactive)	> 100 µM (inactive)	> 100 µM (inactive)		> 100 µM (inactive)	> 100 µM (inactive)	> 100 µM (inactive)	> 100 µM (inactive)	> 100 µM (inactive)	> 100 µM (inactive)	> 100 µM (inactive)
NC1=NC(=O)C(CC(=O)Nc2ccc([N+](=O)[O-])cc2[N+](=O)[O-])S1 (configuration not stated)		> 100 µM (inactive)	> 100 µM (inactive)		> 100 µM (inactive)	> 100 µM (inactive)	> 100 µM (inactive)	> 100 µM (inactive)		> 100 µM (inactive)	> 100 µM (inactive)	> 100 µM (inactive)	> 100 µM (inactive)	> 100 µM (inactive)		> 100 µM (inactive)
O=[N+]([O-])c1cc2c(cc1O)[nH]c1cccc([N+](=O)[O-])c12	> 100 µM (inactive)	> 100 µM (inactive)	> 100 µM (inactive)		> 100 µM (inactive)	> 100 µM (inactive)	> 100 µM (inactive)	> 100 µM (inactive)	> 100 µM (inactive)	> 100 µM (inactive)	> 100 µM (inactive)	> 100 µM (inactive)	> 100 µM (inactive)	> 100 µM (inactive)	> 100 µM (inactive)	> 100 µM (inactive)
COc1ccc2c(C(=O)O)cc3cc(OC)c(OC)cc3c2c1	> 100 µM (inactive)	> 100 µM (inactive)	> 100 µM (inactive)	> 100 µM (inactive)	> 100 µM (inactive)	> 100 µM (inactive)	> 100 µM (inactive)	> 100 µM (inactive)		> 100 µM (inactive)	> 100 µM (inactive)	> 100 µM (inactive)	> 100 µM (inactive)	> 100 µM (inactive)	> 100 µM (inactive)	> 100 µM (inactive)
COc1ccc(/C(Cl)=C/c2ccc(Cl)c(Cl)c2)cc1	43.7 µM (inactive)	22.1 µM (inactive)	23.7 µM (inactive)	37.8 µM (inactive)		18.2 µM (inactive)		24.8 µM (inactive)			33.2 µM (inactive)		29.1 µM (inactive)	35.5 µM (inactive)	35.1 µM (inactive)	16.2 µM (inactive)
CC1(SCC(N)C(=O)O)CC(=O)NC1=O (configuration not stated)	> 100 µM (inactive)	> 100 µM (inactive)	> 100 µM (inactive)	> 100 µM (inactive)	> 100 µM (inactive)	> 100 µM (inactive)	> 100 µM (inactive)	62.4 µM (inactive)	> 100 µM (inactive)	> 100 µM (inactive)		> 100 µM (inactive)	> 100 µM (inactive)	> 100 µM (inactive)	> 100 µM (inactive)	> 100 µM (inactive)
COc1ccc2c(c1)[n+]([O-])c(C(N)=O)c(N)[n+]2[O-]	> 100 µM (inactive)	24.4 µM (inactive)	> 100 µM (inactive)	> 100 µM (inactive)		> 100 µM (inactive)	32.7 µM (inactive)	> 100 µM (inactive)	> 100 µM (inactive)	59.2 µM (inactive)	75.5 µM (inactive)		95.3 µM (inactive)		> 100 µM (inactive)	
CC(=O)CC(=O)CCCC(=O)Nc1ccc(Cl)cc1C	> 100 µM (inactive)	> 100 µM (inactive)	> 100 µM (inactive)	> 100 µM (inactive)	> 100 µM (inactive)	> 100 µM (inactive)	> 100 µM (inactive)	> 100 µM (inactive)	> 100 µM (inactive)	> 100 µM (inactive)	> 100 µM (inactive)	> 100 µM (inactive)	> 100 µM (inactive)	> 100 µM (inactive)	> 100 µM (inactive)	> 100 µM (inactive)
N#Cc1c(NN)nc(NN)c(C#N)c1-c1ccccc1	> 100 µM (inactive)	> 100 µM (inactive)	> 100 µM (inactive)	> 100 µM (inactive)	> 100 µM (inactive)	> 100 µM (inactive)	> 100 µM (inactive)	> 100 µM (inactive)	> 100 µM (inactive)	> 100 µM (inactive)	> 100 µM (inactive)	> 100 µM (inactive)	> 100 µM (inactive)	> 100 µM (inactive)	> 100 µM (inactive)	> 100 µM (inactive)
CC(C)(C)OC(=O)NC(Cc1ccc(O)cc1)C(=O)N1CCCC1C(=O)O (stereo not drawn) (Boc-Tyr-Pro-OH; configuration not given here)	> 100 µM (inactive)	> 100 µM (inactive)	> 100 µM (inactive)	> 100 µM (inactive)	> 100 µM (inactive)	> 100 µM (inactive)	> 100 µM (inactive)	> 100 µM (inactive)	> 100 µM (inactive)	> 100 µM (inactive)	> 100 µM (inactive)	> 100 µM (inactive)	> 100 µM (inactive)	> 100 µM (inactive)	> 100 µM (inactive)	> 100 µM (inactive)
COC1/C(=C\C(C)=O)c2ccccc2N1C(C)=O (configuration not stated)	> 100 µM (inactive)	> 100 µM (inactive)	> 100 µM (inactive)	> 100 µM (inactive)		> 100 µM (inactive)	> 100 µM (inactive)	> 100 µM (inactive)	> 100 µM (inactive)	> 100 µM (inactive)	> 100 µM (inactive)		> 100 µM (inactive)		> 100 µM (inactive)	> 100 µM (inactive)
c1ccc2c(CNCCCN3CCN(CCCNCc4cccc5ccccc45)CC3)cccc2c1	1.61 µM (inactive)	2.06 µM (inactive)	1.77 µM (inactive)	2.39 µM (inactive)	1.35 µM (inactive)	1.03 µM (active)	2.89 µM (inactive)	2.75 µM (inactive)	1.72 µM (inactive)	1.96 µM (inactive)	1.18 µM (inactive)	1.5 µM (inactive)	1.77 µM (inactive)	2.37 µM (inactive)	0.299 µM (active)	1.22 µM (inactive)
c1ccc2cc(-c3cc4ccccc4s3)ccc2c1	> 100 µM (inactive)	> 100 µM (inactive)	> 100 µM (inactive)	22.1 µM (inactive)	> 100 µM (inactive)	> 100 µM (inactive)	> 100 µM (inactive)	> 100 µM (inactive)	> 100 µM (inactive)	> 100 µM (inactive)	> 100 µM (inactive)	> 100 µM (inactive)	> 100 µM (inactive)	> 100 µM (inactive)	> 100 µM (inactive)	38.2 µM (inactive)
O=C(CC1(O)C(=O)Nc2ccccc21)c1ccco1 (configuration not stated)	> 100 µM (inactive)	> 100 µM (inactive)	> 100 µM (inactive)	> 100 µM (inactive)	> 100 µM (inactive)	> 100 µM (inactive)	> 100 µM (inactive)	> 100 µM (inactive)	> 100 µM (inactive)		> 100 µM (inactive)	> 100 µM (inactive)	> 100 µM (inactive)	> 100 µM (inactive)	> 100 µM (inactive)	> 100 µM (inactive)
CSc1cnc2ccccc2c1Sc1c[nH]c2ccccc2c1=O	11.5 µM (inactive)	6.24 µM (inactive)	7.59 µM (inactive)	3.51 µM (inactive)	11.5 µM (inactive)	6.65 µM (inactive)	5.22 µM (inactive)	15.1 µM (inactive)		6.82 µM (inactive)	6.76 µM (inactive)	36 µM (inactive)	14 µM (inactive)	17.3 µM (inactive)	3.46 µM (inactive)	3.28 µM (inactive)
